{"source": "patent US10781236B2", "about": "“Bacteriocin composition and method” (priority 2015, dated 2020)", "key": {"L. plantarum LMGT 2352": {"tested_on": "L. plantarum LMGT 2352", "test": "Relative MIC, inhibitory spectrum", "assay_type": "cell-based, Lactobacillus plantarum", "details": "relative to L. lactis IL 1403 = 1"}, "E. faecium LMGT 2772": {"tested_on": "E. faecium LMGT 2772", "test": "Relative MIC, inhibitory spectrum", "assay_type": "cell-based, Enterococcus faecium", "details": "relative to L. lactis IL 1403 = 1"}, "[1]": {"tested_on": "Pediococcus acidilactici LMGT 2002", "test": "Relative MIC, inhibitory spectrum", "assay_type": "cell-based", "details": "relative to L. lactis IL 1403 = 1"}, "[2]": {"tested_on": "C. tyrobutyricum LMGT 2524", "test": "Relative MIC, inhibitory spectrum", "assay_type": "cell-based, Clostridium tyrobutyricum", "details": "relative to L. lactis IL 1403 = 1"}, "[3]": {"tested_on": "Clostridium bifermentans LMGT 2519", "test": "Relative MIC, inhibitory spectrum", "assay_type": "cell-based", "details": "relative to L. lactis IL 1403 = 1"}, "L. ivanovii LMGT 2813": {"tested_on": "L. ivanovii LMGT 2813", "test": "Relative MIC, inhibitory spectrum", "assay_type": "cell-based, Listeria ivanovii", "details": "relative to L. lactis IL 1403 = 1"}, "L. lactis LMGT 3419": {"tested_on": "L. lactis LMGT 3419", "test": "Relative MIC, inhibitory spectrum", "assay_type": "cell-based, Lactococcus lactis", "details": "relative to L. lactis IL 1403 = 1"}, "L. Sakei LMGT 2361": {"tested_on": "L. Sakei LMGT 2361", "test": "Relative MIC, inhibitory spectrum", "assay_type": "cell-based, Lactobacillus sakei", "details": "relative to L. lactis IL 1403 = 1"}, "L. plantarum LMGT 2358": {"tested_on": "L. plantarum LMGT 2358", "test": "Relative MIC, inhibitory spectrum", "assay_type": "cell-based, Lactobacillus plantarum", "details": "relative to L. lactis IL 1403 = 1"}, "[4]": {"tested_on": "Listeria innocua LMGT 2710", "test": "Relative MIC, inhibitory spectrum", "assay_type": "cell-based", "details": "relative to L. lactis IL 1403 = 1"}, "E. faecium LMGT 2783": {"tested_on": "E. faecium LMGT 2783", "test": "Relative MIC, inhibitory spectrum", "assay_type": "cell-based, Enterococcus faecium", "details": "relative to L. lactis IL 1403 = 1"}, "[5]": {"tested_on": "Lactobacillus curvatus LMGT 2353", "test": "Relative MIC, inhibitory spectrum", "assay_type": "cell-based", "details": "relative to L. lactis IL 1403 = 1"}, "E. faecalis": {"tested_on": "E. faecalis", "test": "Antimicrobial activity against problematic bacteria", "assay_type": "cell-based, Enterococcus faecalis", "procedure": "(§1) To screen for bacteriocin producers with broad inhibition spectra (BIS), Lactococcus lactis, Lactobacillus sakei, Lactobacillus plantarum, Listeria innocua, and Staphylococcus aureus from the food and dairy environment were used as indicators in the first round of screening. The antimicrobial screening was performed using the agar diffusion bioassay as previously described (Holo et al., 1991, J. Bacteriol., 173, p 3879-3887). Briefly, indicator cells from overnight cultures were diluted 100-fold in 5 mL of BHI soft agar and plated out as a lawn on BHI agar plates. Potential bacteriocin producers at volumes of 3 μL were spotted on the indicator lawn and then incubated at appropriate temperatures for 24 h for cell growth and cell inhibition. Inhibition was detected as clear zones around the spotted cells.\n(§2) As the antimicrobial activity of garvicin KS is relatively broad, we explored further its potential to kill a larger panel of important pathogens. The list contained 147 problematic or potentially problematic bacteria of species belonging to Listeria, Staphylococcus, Streptococcus and Enterococcus, isolated from food and clinical sources. In this assay, we compared the antimicrobial activity of garvicin KS with that of garvicin ML and nisin, the last one being known as a broad inhibition-spectrum bacteriocin (AIKhatib et al., 2014, PLOS One 9:e102246 doi:10.1371/joumal.pone.0102246). […]"}, "L. grayi": {"tested_on": "L. grayi", "test": "Antimicrobial activity against problematic bacteria", "assay_type": "cell-based, Listeria grayi", "details": "food sources", "procedure": "as §1, §2"}, "S. aureus LMGT 3265": {"tested_on": "S. aureus LMGT 3265", "test": "Relative MIC, inhibitory spectrum", "assay_type": "cell-based, Staphylococcus aureus", "details": "relative to L. lactis IL 1403 = 1"}, "S. salivarius": {"tested_on": "S. salivarius", "test": "Antimicrobial activity against problematic bacteria", "assay_type": "cell-based, Streptococcus salivarius", "details": "clinical sources", "procedure": "as §1, §2"}, "P. pentosaceus LMGT 2001": {"tested_on": "P. pentosaceus LMGT 2001", "test": "Relative MIC, inhibitory spectrum", "assay_type": "cell-based, Pediococcus pentosaceus", "details": "relative to L. lactis IL 1403 = 1"}, "[6]": {"tested_on": "Bacillus cereus LMGT 2805", "test": "Relative MIC, inhibitory spectrum", "assay_type": "cell-based", "details": "relative to L. lactis IL 1403 = 1"}, "Strep. Thermophylus": {"tested_on": "Strep. Thermophylus", "test": "Antimicrobial activity against problematic bacteria", "assay_type": "cell-based, Streptococcus thermophylus", "details": "food sources", "procedure": "as §1, §2"}, "E. faecium LMGT 2876": {"tested_on": "E. faecium LMGT 2876", "test": "Relative MIC, inhibitory spectrum", "assay_type": "cell-based, Enterococcus faecium", "details": "relative to L. lactis IL 1403 = 1"}, "[7]": {"tested_on": "Enterococcus avium LMGT 3465", "test": "Relative MIC, inhibitory spectrum", "assay_type": "cell-based", "details": "relative to L. lactis IL 1403 = 1"}, "L. seelingeri": {"tested_on": "L. seelingeri", "test": "Antimicrobial activity against problematic bacteria", "assay_type": "cell-based, Listeria seelingeri", "details": "food sources", "procedure": "as §1, §2"}, "L. Sakei LMGT 2380": {"tested_on": "L. Sakei LMGT 2380", "test": "Relative MIC, inhibitory spectrum", "assay_type": "cell-based, Lactobacillus sakei", "details": "relative to L. lactis IL 1403 = 1"}, "L. lactis IL1403": {"tested_on": "L. lactis IL1403", "test": "Relative MIC, inhibitory spectrum", "assay_type": "cell-based, Lactococcus lactis", "details": "the reference indicator, referred to as 1"}, "L. lactis LMGT 2130": {"tested_on": "L. lactis LMGT 2130", "test": "Relative MIC, inhibitory spectrum", "assay_type": "cell-based, Lactococcus lactis", "details": "relative to L. lactis IL 1403 = 1"}, "L. curvatus LMGT 2355": {"tested_on": "L. curvatus LMGT 2355", "test": "Relative MIC, inhibitory spectrum", "assay_type": "cell-based, Lactobacillus curvatus", "details": "relative to L. lactis IL 1403 = 1"}, "Staph. Aureus": {"tested_on": "Staph. Aureus", "test": "Antimicrobial activity against problematic bacteria", "assay_type": "cell-based, Staphylococcus aureus", "procedure": "as §1, §2"}, "[8]": {"tested_on": "Leuconostoc gelidium LMGT 2386", "test": "Relative MIC, inhibitory spectrum", "assay_type": "cell-based", "details": "relative to L. lactis IL 1403 = 1"}, "L. Sakei LMGT 2799": {"tested_on": "L. Sakei LMGT 2799", "test": "Relative MIC, inhibitory spectrum", "assay_type": "cell-based, Lactobacillus sakei", "details": "relative to L. lactis IL 1403 = 1"}, "L. innocua": {"tested_on": "L. innocua", "test": "Antimicrobial activity against problematic bacteria", "assay_type": "cell-based, Listeria innocua", "details": "food sources", "procedure": "as §1, §2"}, "S. pneumonia": {"tested_on": "S. pneumonia", "test": "Antimicrobial activity against problematic bacteria", "assay_type": "cell-based, Streptococcus pneumonia", "procedure": "as §1, §2"}, "[9]": {"tested_on": "53 strains of different genera in the Firmicutes family", "test": "Inhibitory spectrum, whole panel of Table 3", "assay_type": "cell-based", "details": "53 strains of Table 3", "from_the_text": "A more extended comparison between the bacteriocin activity of L. garvieae KS 1546 (termed garvicin KS) and L. garvieae DCC 43 (garvicin ML producer) can also be seen in Table 3."}, "E. faecium": {"tested_on": "E. faecium", "test": "Antimicrobial activity against problematic bacteria", "assay_type": "cell-based, Enterococcus faecium", "details": "food sources", "procedure": "as §1, §2"}, "P. pentosaceus LMGT 2366": {"tested_on": "P. pentosaceus LMGT 2366", "test": "Relative MIC, inhibitory spectrum", "assay_type": "cell-based, Pediococcus pentosaceus", "details": "relative to L. lactis IL 1403 = 1"}, "[10]": {"tested_on": "Staphylococcus aureus LMGT 3022", "test": "Relative MIC, inhibitory spectrum", "assay_type": "cell-based", "details": "relative to L. lactis IL 1403 = 1"}}}
{"substance": "garvicin ML", "values": [{"measurement": "Relative MIC value", "setting": "L. plantarum LMGT 2352", "value": 16}, {"measurement": "Relative MIC value", "setting": "E. faecium LMGT 2772", "value": 32}, {"measurement": "Relative MIC value", "setting": "[1]", "value": 32}, {"measurement": "Relative MIC value", "setting": "[2]", "value": "32-64"}, {"measurement": "Relative MIC value", "setting": "[3]", "value": "16-32"}, {"measurement": "Relative MIC value", "setting": "L. ivanovii LMGT 2813", "value": 32}, {"measurement": "Relative MIC value", "setting": "L. lactis LMGT 3419", "value": "≤0.25"}, {"measurement": "Relative MIC value", "setting": "L. Sakei LMGT 2361", "value": 32}, {"measurement": "Relative MIC value", "setting": "L. plantarum LMGT 2358", "value": 512}, {"measurement": "Relative MIC value", "setting": "[4]", "value": 32}, {"measurement": "Relative MIC value", "setting": "E. faecium LMGT 2783", "value": 64}, {"measurement": "Relative MIC value", "setting": "[5]", "value": 16}, {"measurement": "number of sensitive strains / number of strains tested", "setting": "E. faecalis; clinical sources", "value": "0/2"}, {"measurement": "number of sensitive strains / number of strains tested", "setting": "E. faecalis; food sources", "value": "18/40"}, {"measurement": "number of sensitive strains / number of strains tested", "setting": "L. grayi", "value": "0/2"}, {"measurement": "Relative MIC value", "setting": "S. aureus LMGT 3265", "value": "≥512"}, {"measurement": "number of sensitive strains / number of strains tested", "setting": "S. salivarius", "value": "1/1"}, {"measurement": "Relative MIC value", "setting": "P. pentosaceus LMGT 2001", "value": "16-32"}, {"measurement": "Relative MIC value", "setting": "[6]", "value": 64}, {"measurement": "number of sensitive strains / number of strains tested", "setting": "Strep. Thermophylus", "value": "8/8"}, {"measurement": "Relative MIC value", "setting": "E. faecium LMGT 2876", "value": "64-128"}, {"measurement": "Relative MIC value", "setting": "[7]", "value": "≤0.25"}, {"measurement": "number of sensitive strains / number of strains tested", "setting": "L. seelingeri", "value": "0/1"}, {"measurement": "Relative MIC value", "setting": "L. Sakei LMGT 2380", "value": 32}, {"measurement": "Relative MIC value", "setting": "L. lactis IL1403", "value": 1}, {"measurement": "Relative MIC value", "setting": "L. lactis LMGT 2130", "value": 8}, {"measurement": "Relative MIC value", "setting": "L. curvatus LMGT 2355", "value": "2-4"}, {"measurement": "number of sensitive strains / number of strains tested", "setting": "Staph. Aureus; clinical sources", "value": "9/25"}, {"measurement": "number of sensitive strains / number of strains tested", "setting": "Staph. Aureus; food sources", "value": "4/28"}, {"measurement": "Relative MIC value", "setting": "[8]", "value": "32-64"}, {"measurement": "Relative MIC value", "setting": "L. Sakei LMGT 2799", "value": "8-16"}, {"measurement": "number of sensitive strains / number of strains tested", "setting": "L. innocua", "value": "1/6"}, {"measurement": "number of sensitive strains / number of strains tested", "setting": "S. pneumonia; clinical sources", "value": "1/1"}, {"measurement": "number of sensitive strains / number of strains tested", "setting": "S. pneumonia; food sources", "value": "1/1"}, {"measurement": "number of sensitive strains (n) among 53 strains", "setting": "[9]", "value": 39}, {"measurement": "sensitive portion of 53 strains", "setting": "[9]", "value": "about 74%"}, {"measurement": "number of sensitive strains / number of strains tested", "setting": "E. faecium", "value": "7/7"}, {"measurement": "Relative MIC value", "setting": "P. pentosaceus LMGT 2366", "value": 64}, {"measurement": "Relative MIC value", "setting": "[10]", "value": 512}]}
